Here are results for 7 molecules from USH25H, “Thiophosphoryl triamide as a urease inhibitor” (Tennessee Valley Authority, priority 1985, dated 1986).

Molecules are shown by their SMILES.

In experiment [1] the test system is soil urease (Hastings silt loam). The experiment in a line: Urea hydrolysis in bands of urea plus inhibitor in soil (banded soil system). In kind it is biochemical. Particulars: for % inhibition, as measured by percent urea unhydrolyzed: 41 mg inhibitor + 410 mg urea per band, Hastings silt loam, 25° C. The source says:
Another advantage of the banded configuration compared with mixing throughout the soil is that slightly soluble test compounds can be easily band applied, whereas it is difficult to achieve a known degree of mixing of a small quantity of slightly soluble test compound with soil. The banded configuration also enables testing for urease inhibition under realistic soil conditions prior to the development of techniques for cogranulating a wide range of test compounds with urea. […] Urease-active soil (Hastings silt loam) was moistened to a moisture content of 20% (dry weight basis) and preincubated at room temperature for two days. Plexiglas containers (6×6×6 -cm) were one-half filled with soil and packed to a bulk density of 1.1 g/cm^3. Urea or urea plus inhibitor (thoroughly mixed) was distributed in a narrow band 6-cm long on the soil surface. The containers then were filled with soil, again packing to a bulk density of 1.1 g/cm^3. The containers were incubated at 25° C. for the desired reaction period, after which the containers were frozen to about -5° C. to stop urea hydrolysis. Immediately prior to extracting the remaining urea from the soil, said soil was allowed to thaw. Soil from each container was thoroughly mixed, and a 10-g sample was extracted with 100 ml of 2 M KCl containing phenylmercuric acetate to prevent urea hydrolysis during handling [L. A. Douglass and J. M. Bremner, Soil Sci. Soc. Am.
Urease-active soil (Hastings silt loam) was moistened to a moisture content of 20% and preincubated at room temperature for two days. Plexiglas containers (6×6×6 cm) were one-half filled with soil and packed to a bulk density of 1.1 g/cm^3. Urea or urea plus inhibitor (thoroughly mixed) was distributed in a narrow band 6-cm long on the surface of the soil. The containers then were filled with soil and again packed to a bulk density of 1.1 g/cm^3. The containers were incubated at 25° C. for the desired reaction period. The soil from each container was thoroughly mixed, and a 10-g sample was extracted with 100 ml of 2 M KCl containing 5 ppm phenylmercuric acetate to prevent urea hydrolysis during handling [L. A. Douglass and J. M. Bremner, Soil Sci. Soc. Am. […] The urea in the extracts was determined colorimetrically as a measure of the unhydrolyzed urea.

The test system of experiment [2] is soil urease (Crowley silt loam). Description: Well-mixed inhibitor-soil incubation test, urea added at intervals (modified Douglass and Bremner procedure). Particulars: for Percent urea unhydrolyzed (higher = more urease inhibition): 7 micromoles per 120 g Crowley soil, 30° C., 16 hours with urea. In kind it is biochemical. As for the experimental part: Test compounds in Example II, infra, were evaluated in soil systems by a modification of the Douglass and Bremner procedure [L. A. Douglass and J. W. Bremner, Soil Biol. Biochem. 3, 309-315 (1971)] in which solutions or suspensions of the test compounds were mixed throughout the soil. Then at selected time intervals urea was added to the soil-inhibitor mixtures. The advantage of this procedure is that soil urease inhibition by the test compounds can be detected for time periods lasting up to several weeks or longer.
(§1) Specifics of the procedure for evaluating the test compounds in Example II were the following. Urease-active soil (Crowley silt loam from Louisiana) was moistened to a moisture content of 16% (dry weight basis) and preincubated at room temperature for two days. One milliliter of solution or suspension containing 7 micromoles of each test compound was added to 120 g of moist soil and mixed well. Polyvinylchloride cylinders 12-cm long and 4 cm in diameter were filled with the inhibitor-soil mixtures, packed to a bulk density of about 0.9 g/cm^3, and covered with a perforated plastic film. […] At each time interval, 1 ml of urea solution containing 50 mg of urea was mixed well with the inhibitor-soil mixture from a single column. The urea-inhibitor-soil mixture was packed in a column to a bulk density of about 0.9 g/cm^3, covered with a perforated plastic film, and reincubated for 16 hours at 30° C. Following the 16 hours of reincubation, about 120 g of the urea-inhibitor-soil mixture was extracted with 250 ml of 2 M KCl containing 5 ppm of […]. The KCl-PPDA extracts were analyzed on the Auto Analyzer II [Technicon method No. 40001 FD4, Technicon, Tarrytown, N.Y., U.S.A. (1974)]. Three replicates were used on all treatments and checks.
as §1, with “are as follows.” for “were the following.”, “New York,” for “N.Y.,”, “checks. Two groups of compounds were tested as indicated in Table IV as Test Series I and Test Series II.” for “checks.”

Experiment [3] concerns urease. Particulars: literature and earlier patents; cited from earlier work.
Experiment [4] deals with urease. Particulars: IFDC, unpublished results; cited from earlier work.
Setting [5] is: Test Series I, inhibitor incubation 0 days.
Where [6] appears, read: Test Series I, inhibitor incubation 3 days.
Setting [7] is: Test Series I, inhibitor incubation 7 days.
[8] abbreviates: Test Series I, inhibitor incubation 14 days.
Setting [9] is: Test Series I, inhibitor incubation 21 days.
[10] abbreviates: Test Series I, inhibitor incubation 35 days.
Where [11] appears, read: Test Series II, inhibitor incubation 0 days.
Where [12] appears, read: Test Series II, inhibitor incubation 7 days.
Setting [13] is: Test Series II, inhibitor incubation 15 days.
Setting [14] is: Test Series II, inhibitor incubation 21 days.

As to `NP(N)(=O)Oc1ccccc1` [PPDA, Phenyl phosphorodiamidate], the “% inhibition, as measured by percent urea unhydrolyzed” value in experiment [1] (Test Series I, 3 days) worked out at 62.6%; in experiment [1] (Test Series I, 6 days) it was 10.1%; in experiment [1] (Test Series II, 0 days), 96.4%; in experiment [1] (Test Series II, 3 days) it was 90.3%; in experiment [1] (Test Series II, 6 days) it was 58.2%. Besides, the “Percent urea unhydrolyzed (higher = more urease inhibition)” value stood at 100% in experiment [2] (setting [5]); 65% in experiment [2] (setting [6]); 59% in experiment [2] (setting [7]); 33% in experiment [2] (setting [8]); 13% in experiment [2] (setting [9]); 2% in experiment [2] (setting [10]). The “Percent urea unhydrolyzed (higher = more urease inhibition)” value in experiment [2] (setting [11]) turned out to be 89%; in experiment [2] (setting [12]) it was 38%; in experiment [2] (setting [13]) it was 37%; in experiment [2] (setting [14]) it was 11%. In addition, in the experiment with urease [3], the “urease inhibition (in words) reported by previous workers” value (shortened to “urease inhibition (in words) reported”) is reported as “extremely potent inhibitor of urease activity”. Besides, the “type of urease inhibition” value with urease [4] was “competitive inhibition”.

As to `Oc1ccc(O)cc1` [hydroquinone], the “type of urease inhibition” value in the experiment with urease [4] is recorded as “mixed inhibition mechanism”.

Take `NP(=O)(O)O` [monoamidophosphoric acid]: the “urease inhibition (in words) reported” value in the experiment with urease [3] is “effective urease inhibitors”.

Consider `NP(N)(=O)O` [diamidophosphoric acid], for which, in the experiment with urease [3], the “urease inhibition (in words) reported” value is “effective urease inhibitors”.

For the molecule `NP(N)(N)=O` [PTA, Phosphoryl triamide], the “% inhibition, as measured by percent urea unhydrolyzed” value in experiment [1] (Test Series I, 3 days) came out at 54.6%; in experiment [1] (Test Series I, 6 days), 2.6%. Moreover, the “urease inhibition (in words) reported” value with urease [3] was “powerful urease inhibitors”.

Turning to `NP(N)(=S)Oc1ccccc1` [PTPDA, Phenylthiophosphenyl diamidate], the “% inhibition, as measured by percent urea unhydrolyzed” value is reported as 100.0% in experiment [1] (Test Series II, 0 days); 97.2% in experiment [1] (Test Series II, 3 days); 65.7% in experiment [1] (Test Series II, 6 days). The “Percent urea unhydrolyzed (higher = more urease inhibition)” value in experiment [2] (setting [11]) worked out at 56%; in experiment [2] (setting [12]) it was 21%; in experiment [2] (setting [13]), 24%; in experiment [2] (setting [14]), 2%. The “urease inhibition (in words) reported” value in the experiment with urease [3] is on record as “less effective as an inhibitor”.

In the case of `NP(N)(N)=S` [TPTA, Thiophosphoryl triamide], in experiment [1] (Table III, FIGS. 1 and 2, three-day and six-day tests), the “effectiveness as an inhibitor of soil urease activity compared with PPDA (in words)” value is reported as “superior to PPDA”. Moreover, the “% inhibition, as measured by percent urea unhydrolyzed” value in experiment [1] (Test Series I, 3 days) is 71.7%; in experiment [1] (Test Series I, 6 days), 34.9%; in experiment [1] (Test Series II, 0 days) it was 100.0%; in experiment [1] (Test Series II, 3 days) it was 88.0%; in experiment [1] (Test Series II, 6 days), 61.1%. Further, the “Percent urea unhydrolyzed (higher = more urease inhibition)” value in experiment [2] (setting [5]) was 59%; in experiment [2] (setting [6]), 54%; in experiment [2] (setting [7]) it was 54%; in experiment [2] (setting [8]) it was 19%; in experiment [2] (setting [9]), 27%; in experiment [2] (setting [10]), 2%. Also, the “Percent urea unhydrolyzed (higher = more urease inhibition)” value in experiment [2] (setting [11]) worked out at 47%; in experiment [2] (setting [12]), 13%; in experiment [2] (setting [13]), 37%; in experiment [2] (setting [14]), 18%. In experiment [2] (up to 21 days incubation, Table IV, FIGS. 3 and 4), the “urease inhibitory activity remaining after long inhibitor incubation (in words)” value is recorded as “superior”. For the same molecule, the “urease inhibition (in words) reported” value in the experiment with urease [3] is listed as “ineffective as a urease inhibitor”.
